# Measured values published in paper PMC3081989 (Biochemistry, 2010).
# Where a SMILES comes first, the peptide text is derived from it.
# How the values were obtained:
# [1] = tested on: hRXRα-LBD homodimer; assay: hydrogen deuterium exchange mass spectrometry; assay type: binding, human
# [2] = tested on: humans; settings: cited from earlier work
# [3] = target: T1, hRXRα-LBD:9cRA homodimers (Homo sapiens, UniProt P19793); assay: isothermal titration calorimetry; settings: 37 °C, buffer C pH 8.0, single-site binding model
# T1 sequence (P19793 223-462): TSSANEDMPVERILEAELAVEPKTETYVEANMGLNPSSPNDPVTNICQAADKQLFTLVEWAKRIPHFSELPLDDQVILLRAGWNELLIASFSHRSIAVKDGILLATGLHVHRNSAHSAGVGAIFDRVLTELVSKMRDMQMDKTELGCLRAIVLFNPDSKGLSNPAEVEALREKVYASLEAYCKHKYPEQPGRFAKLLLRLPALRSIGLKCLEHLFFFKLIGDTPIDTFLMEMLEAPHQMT
# [4] = target: GRIP-1 (NCOA2/TIF2) NR-box II coactivator peptide, 13-mer (UniProt Q15596); assay: ITC; settings: pH 8.0, 25 °C, 50 mM NaCl, buffer C: 10 mM Tris
compound,measurement,setting,value
"CC1=C(/C=C/C(C)=C\C=C\C(C)=C\C(=O)O)C(C)(C)CCC1 [9cRA, 9-cis-retinoic acid]","reduction in deuterium incorporation, peptide L419-F438 (H11)","[1]; following 15 s of deuterium incorporation, 9cRA alone",> 20%
same,"rate of deuterium incorporation, H12 region","[1]; hRXRα-LBD:9cRA versus apo-hRXRα-LBD, GRIP-1 added to hRXRα-LBD:9cRA",unaltered rates of incorporation
same,change in deuterium incorporation of peptides around the ligand binding pocket,"[1]; relative to apo-hRXRα-LBD, upon 9cRA binding",10–37%
same,"reduction in deuterium incorporation, peptide L301-L308 (H4)",[1]; text: upon the addition of GRIP-1 versus in the presence of 9cRA alone,12%
same,toxicity,[2]; oral administration to humans,displays significant toxicity with oral administration to humans
CC[C@H](C)[C@H](NC(=O)[C@H](CCCCN)NC(=O)[C@H](Cc1c[nH]cn1)NC(=O)[C@@H](N)CCCCN)C(=O)N[C@@H](CC(C)C)C(=O)N[C@@H](Cc1c[nH]cn1)C(=O)N[C@@H](CCCNC(=N)N)C(=O)N[C@@H](CC(C)C)C(=O)N[C@@H](CC(C)C)C(=O)N[C@@H](CCC(N)=O)C(=O)N[C@@H](CC(=O)O)C(=O)N[C@@H](CO)C(=O)N[C@@H](CO)C(=O)O [GRIP-1] (H-KHKILHRLLQDSS-OH),Kd,[3],1 ± 0.05 µM
C=C(c1ccc(C(=O)O)cc1)c1cc2c(cc1C)C(C)(C)CCC2(C)C [Targretin],dose limiting toxicities compared with 9cRA,[2]; oral treatment of cutaneous T-cell lymphoma,significantly fewer dose limiting toxicities than 9cRA
"Retinoid X receptor alpha ligand-binding domain, homodimer loaded with 9-cis-retinoic acid (hRXRalpha-LBD:9cRA)",ΔH,[4],-9.15 kcal/mol
